ChEMBL document CHEMBL4190162, “SAR and identification of 2-(quinolin-4-yloxy)acetamides as Mycobacterium tuberculosis cytochrome bc1 inhibitors” (Medchemcomm, 2016)
Values after ≈ are worked out from the molar mass of the structure shown. Active and inactive are the calls of the source. No cut-off for these calls is given here.

Key:
[1] = test system: Mycobacterium tuberculosis; assay: Antimycobacterial activity against Mycobacterium tuberculosis H37Rv measured after 6 days by resazurin dye based fluorescence assay; format: functional; settings: 144 h
[2] = Cytotoxicity against human HepG2 cells after 24 to 48 hrs in presence of glucose by trypan blue dye-based hemocytometric method; format: cell-based
[3] = test system: Mycolicibacterium smegmatis; assay: Antibacterial activity against Mycobacterium smegmatis; format: functional, organism-based
[4] = Cytotoxicity against human HepG2 cells after 24 to 48 hrs in presence of galactose by trypan blue dye-based hemocytometric method; format: cell-based
[5] = test system: Mycobacterium tuberculosis H37Rv; assay: Inhibition of Mycobacterium tuberculosis H37Rv cytochrome bc1 oxidase assessed as reduction in ATP level measured up to 24 hrs under anaerobic condition
[6] = test system: Mycobacterium tuberculosis; assay: Antimycobacterial activity against Mycobacterium tuberculosis H37Rv measured after 1 week; format: functional; settings: 168 h
[7] = test system: Escherichia coli; assay: Antibacterial activity against Escherichia coli 25922; format: functional, organism-based; settings: ATCC 25922
[8] = test system: Mycobacterium tuberculosis; assay: Antimycobacterial activity against Mycobacterium tuberculosis H37Rv after 2 weeks by microplate alamar blue assay; format: functional; settings: 336 h
[9] = test system: Mycobacteroides abscessus; assay: Antibacterial activity against Mycobacterium abscessus; format: functional, organism-based
[10] = test system: Mycobacterium tuberculosis; assay: Antimycobacterial activity against Mycobacterium tuberculosis H37Rv BSG001; format: functional, organism-based
[11] = test system: Staphylococcus aureus; assay: Antibacterial activity against Staphylococcus aureus XEN36; format: functional, organism-based
[12] = test system: Mycobacterium tuberculosis; assay: Antimycobacterial activity against Mycobacterium tuberculosis H37Rv measured after 2 weeks; format: functional; settings: 336 h

SMILES	MIC90 [1]	CC50 [2]	Activity [3]	CC50 [4]	inhibition [5]	MIC [6]	Activity [7]	MIC [8]	Activity [9]	Activity [10]	Activity [11]	MIC [12]
COc1ccc2nc(C)cc(OCC(=O)Nc3cccc(C)c3)c2c1	0.3 to 3.3 µM (≈ 0.101 to 1.11 µg/mL)	–	–	–	–	–	–	–	–	–	–	–
Cc1cc(OCC(=O)NCc2ccccc2)c2cc(Br)ccc2n1	0.3 to 3.3 µM (≈ 0.116 to 1.27 µg/mL)	–	–	–	–	–	–	–	–	–	–	–
Cc1cc(OCC(=O)Nc2ccccc2)c2cc(Br)ccc2n1	0.3 to 3.3 µM (≈ 0.111 to 1.23 µg/mL)	–	–	–	–	–	–	–	–	–	–	–
COc1ccc2nc(C)cc(OCC(=O)Nc3ccc4c(c3)OCO4)c2c1	–	80 µM	inactive	39.6 µM	Active	4.26 µM (≈ 1.56 µg/mL)	inactive	2.13 µM (≈ 0.78 µg/mL)	inactive	inactive	inactive	> 136 µM
COc1ccc2nc(C)cc(OCC(=O)Nc3ccccc3OC)c2c1	0.3 to 3.3 µM (≈ 0.106 to 1.16 µg/mL)	> 142 µM	–	19.6 µM	Active	2.21 µM (≈ 0.779 µg/mL)	–	1.11 µM (≈ 0.391 µg/mL)	–	inactive	–	53.9 µM (≈ 19 µg/mL)
COc1ccc2nc(C)cc(OCC(=O)NCc3ccccc3)c2c1	0.3 to 3.3 µM (≈ 0.101 to 1.11 µg/mL)	> 149 µM	–	> 149 µM	Active	3.57 µM (≈ 1.2 µg/mL)	–	2.32 µM (≈ 0.78 µg/mL)	–	inactive	–	> 148 µM
COc1ccc2nc(C)cc(OCC(=O)Nc3ccc(OC)c(OC)c3)c2c1	–	> 131 µM	inactive	> 131 µM	Active	> 131 µM	inactive	24.6 µM (≈ 9.4 µg/mL)	inactive	inactive	inactive	> 131 µM
COc1ccc(NC(=O)COc2cc(C)nc3ccc(OC)cc23)c(OC)c1	–	> 131 µM	inactive	> 131 µM	Active	24.6 µM (≈ 9.4 µg/mL)	inactive	2.04 µM (≈ 0.78 µg/mL)	inactive	inactive	inactive	32.7 µM (≈ 12.5 µg/mL)
COc1ccc2nc(C)cc(OCC(=O)NCCCc3ccccc3)c2c1	–	> 137 µM	inactive	50.7 µM	Active	68.6 µM (≈ 25 µg/mL)	inactive	25.8 µM (≈ 9.4 µg/mL)	inactive	inactive	inactive	68.6 µM (≈ 25 µg/mL)
